Assay results from US6562833B1 (priority 1998, dated 2003).

What was measured:
Assay type in all cases: in vivo
[1] = test system: Puccinia recondita; test: Comparative Experiment 2 - curative activity against Puccinia recondita on wheat (wheat leaf rust); settings: potted wheat seedlings c.v. Kanzler, aqueous 250 ppm preparation sprayed the day after inoculation, assessed after 7 days, untreated plants 100% infected
Excerpt: (§1) The active ingredients were formulated separately or jointly as a 10% emulsion in a mixture of 70% by weight of cyclohexanone, 20% by weight of Nekanil® LN (Lutensol® AP6, wetting agent having emulsifying and dispersant action based on ethoxylated alkylphenols) and 10% by weight of Wettol® EM (nonionic emulsifier based on ethoxylated castor oil) and diluted with water to give the desired concentration.
Leaves of potted wheat seedlings c.v. “Kanzler” were dusted with spores of wheat leaf rust (Puccinia recondita). Thereafter, the pots were kept in a chamber of high atmospheric humidity (90 to 95%), at 20 to 22° C. for 24 hours. During this time, the spores germinated and the germ tubes penetrated into the leaf tissue. The next day, the infected plants were sprayed to runoff point with an aqueous 250 ppm preparation of active compound which had been made up from a stock solution consisting of 10% of active compound, 63% of cyclohexanone and 27% of emulsifier. After the spraycoating had dried on, the test plants were cultivated in a greenhouse at 20-22° C. and 65-70% relative atmospheric humidity for 7 days. The extent of the rust fungus development on the leaves was then determined.

[2] = test system: Plasmopara viticola; test: Comparative Experiment 1 - activity against Plasmopara viticola on grapevine leaves (persistency, 500 ppm); settings: potted grapevines c.v. Müller-Thurgau; aqueous 500 ppm preparation sprayed to runoff; inoculated 7 days after treatment; untreated plants 85% infected
Excerpt: as §1
Leaves of potted grapevines c.v. “Müller-Thurgau” were sprayed to runoff point with an aqueous 500 ppm preparation of active compound which had been made up from a stock solution comprising 10% of active compound, 63% of cyclohexanone and 27% of emulsifier. To assess the persistency of the substances, the plants were kept for 7 days in a greenhouse after the spray-coating had dried off. Only then were the leaves inoculated with an aqueous zoospore suspension of Plasmopara viticola. The grapevines were then initially kept in a water vapor-saturated chamber at 24° C. for 48 hours and then in a greenhouse at 20-30° C. for 5 days. After this period of time, the plants were once more kept in a humid chamber for 16 hours to promote sporangiophore eruption. The extent of the infection on the undersides of the leaves was then determined visually.

[3] = test system: Pyricularia oryzae; settings: potted rice seedlings c.v. TaiNong 67; protective, aqueous 250 ppm preparation; inoculated the next day; assessed after 6 days; untreated plants 90% infected
[4] = test system: Plasmopara viticola; test: Comparative Experiment 4 - activity against Plasmopara viticola on grapevine leaves (persistency, 250 ppm); settings: potted grapevines c.v. Müller-Thurgau; aqueous 250 ppm preparation sprayed to runoff; inoculated 7 days after treatment; untreated plants 85% infected
Excerpt: as §1
Leaves of potted grapevines c.v. “Müller-Thurgau” were sprayed to runoff point with an aqueous 250 ppm preparation of active compound which had been made up from a stock solution comprising 10% of active compound, 63% of cyclohexanone and 27% of emulsifier. To assess the persistency of the substances, the plants were kept for 7 days in a greenhouse after the spray-coating had dried off. Only then were the leaves inoculated with an aqueous zoospore suspension of Plasmopara viticola. The grapevines were then initially kept in a water vapor-saturated chamber at 24° C. for 48 hours and then in a greenhouse at 20-30° C. for 5 days. After this period of time, the plants were once more kept in a humid chamber for 16 hours to promote sporangiophore eruption. The extent of the infection on the undersides of the leaves was then determined visually.

| Compound | infection (extent of the rust fungus development on the leaves) [1] [%] | infection (extent of the infection on the undersides of the leaves, determined visually) [2] [%] | infection (extent of the development of the disease on the leaves, determined visually) [3] [%] | infection (extent of the infection on the undersides of the leaves, determined visually) [4] [%] |
| --- | --- | --- | --- | --- |
| Cc1nc(Nc2ccccc2)nc(C#N)c1C [I.9, 4-Cyano-5,6-dimethyl-2-(phenylamino)pyrimidine] | 30 | 5 |  |  |
| Cc1nc(Nc2ccccc2)nc(C(F)(F)F)c1C [I.18] |  |  | 15 |  |
| CON=Cc1nc(Nc2ccccc2)nc(C)c1C [I.62, 5,6-Dimethyl-4-(N-methoxyimino)methyl-2-(N-phenylamino)pyrimidine] |  |  |  | 10 |
| Cc1cc(C#N)nc(Nc2ccccc2)n1 [active compound A] | 100 | 50 |  |  |
| Cc1cc(C(F)(F)F)nc(Nc2ccccc2)n1 [active compound B] |  |  | 80 |  |
| CON=Cc1cc(C)nc(Nc2ccccc2)n1 [active compound C] |  |  |  | 60 |
